Reference: publication PMC10976477 (RSC Advances, 2024)

Experiments:
[1] = DPPH radical scavenging assay; conditions: read-out: IC50 (μM) ± SEM DPPH
[2] = Ferric ion reducing antioxidant power; conditions: μM equivalent to the standard antioxidant ascorbic acid
[3] = ABTS radical cation scavenging assay; conditions: read-out: IC50 (μM) ± SEM ABTS
eeAChE = eeAChE (Electrophorus electricus, UniProt O42275); assay: Cholinesterase inhibition, Ellman's assay; assay type: biochemical, electric eel; conditions: for SI = IC50 of BChE/IC50 of AChE: selectivity index
human MAO-B = molecular target: T1, human MAO-B (Homo sapiens, UniProt P27338); assay: MAO-B inhibition assay; assay type: biochemical; conditions: for SI = IC50 of MAO-A/IC50 of MAO-B: selectivity index
T1 sequence (P27338 1-520): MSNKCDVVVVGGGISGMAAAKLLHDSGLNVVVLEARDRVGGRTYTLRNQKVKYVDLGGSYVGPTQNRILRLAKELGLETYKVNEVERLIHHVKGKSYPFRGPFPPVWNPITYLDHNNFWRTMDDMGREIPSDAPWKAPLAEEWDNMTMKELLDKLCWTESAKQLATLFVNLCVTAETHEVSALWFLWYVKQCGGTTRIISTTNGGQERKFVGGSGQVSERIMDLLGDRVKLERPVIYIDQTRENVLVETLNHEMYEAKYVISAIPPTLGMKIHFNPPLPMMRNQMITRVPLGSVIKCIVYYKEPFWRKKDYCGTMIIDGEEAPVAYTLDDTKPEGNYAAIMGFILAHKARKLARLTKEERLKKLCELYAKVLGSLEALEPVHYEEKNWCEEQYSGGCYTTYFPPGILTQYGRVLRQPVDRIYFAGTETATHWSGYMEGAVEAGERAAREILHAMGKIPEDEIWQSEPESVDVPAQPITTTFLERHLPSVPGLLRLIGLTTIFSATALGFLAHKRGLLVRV

eqBChE = eqBChE (Equus caballus, UniProt P81908); assay: biochemical
human MAO-A = molecular target: T2, human MAO-A (Homo sapiens, UniProt P21397); assay: MAO-A inhibition assay; assay type: biochemical
T2 sequence (P21397 1-527): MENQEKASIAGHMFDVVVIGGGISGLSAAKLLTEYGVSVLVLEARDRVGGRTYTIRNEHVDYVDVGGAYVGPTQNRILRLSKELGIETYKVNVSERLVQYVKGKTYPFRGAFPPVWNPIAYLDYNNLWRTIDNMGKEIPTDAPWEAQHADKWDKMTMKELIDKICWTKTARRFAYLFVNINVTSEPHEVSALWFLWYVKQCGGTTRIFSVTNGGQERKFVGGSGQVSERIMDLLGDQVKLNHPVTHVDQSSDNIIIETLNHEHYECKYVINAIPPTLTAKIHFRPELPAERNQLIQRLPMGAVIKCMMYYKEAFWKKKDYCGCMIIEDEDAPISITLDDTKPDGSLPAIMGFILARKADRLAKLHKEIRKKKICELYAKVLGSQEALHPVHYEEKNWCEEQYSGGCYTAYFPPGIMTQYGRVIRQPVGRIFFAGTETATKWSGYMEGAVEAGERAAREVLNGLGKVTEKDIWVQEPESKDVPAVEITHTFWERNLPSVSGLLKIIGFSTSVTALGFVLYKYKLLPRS

[4] = In vivo antioxidant potential in mice; conditions: 5 mg kg^−1, SOD, CAT, GSH
Aβ1–42 peptide = Aβ1–42 peptide (Homo sapiens, UniProt P05067); assay: ThT fluorescence assay for self-mediated Aβ1–42 aggregation; assay type: biochemical; conditions: for inhibition of amyloid beta fibrils: after a 24-hour equimolar administration, ThT fluorescence (Fig. 4)
SH-SY5Y cells = assay: SH-SY5Y neuroblastoma cell toxicity; assay type: cell-based, human; conditions: for neurotoxicity / cytotoxicity on SH-SY5Y cells: 10–100 μM, 48 h incubation, MTT
COX-2 = molecular target: T3, COX-2 (Homo sapiens, UniProt P35354); assay: biochemical
T3 sequence (P35354 18-604): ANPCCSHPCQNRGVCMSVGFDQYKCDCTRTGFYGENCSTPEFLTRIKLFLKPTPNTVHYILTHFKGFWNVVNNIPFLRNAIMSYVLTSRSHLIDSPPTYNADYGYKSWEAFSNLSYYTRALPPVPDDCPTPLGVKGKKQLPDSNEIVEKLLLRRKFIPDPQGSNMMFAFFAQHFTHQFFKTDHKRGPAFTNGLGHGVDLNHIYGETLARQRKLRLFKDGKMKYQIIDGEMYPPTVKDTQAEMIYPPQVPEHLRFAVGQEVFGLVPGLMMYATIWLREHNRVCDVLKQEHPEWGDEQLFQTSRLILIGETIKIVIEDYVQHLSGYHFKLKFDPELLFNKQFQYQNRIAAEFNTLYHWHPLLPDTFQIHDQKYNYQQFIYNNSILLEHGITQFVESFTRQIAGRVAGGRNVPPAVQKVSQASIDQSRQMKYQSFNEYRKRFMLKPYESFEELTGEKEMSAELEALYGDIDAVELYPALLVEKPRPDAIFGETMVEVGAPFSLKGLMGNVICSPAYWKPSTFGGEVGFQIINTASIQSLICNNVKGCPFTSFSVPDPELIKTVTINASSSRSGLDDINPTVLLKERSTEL

HEK-293 cells = assay: Cell viability assay on normal human embryonic HEK-293 cells; assay type: cell-based; conditions: 1, 10, 20, 40 and 100 μM, MTT
CAT = assay: In vivo CAT activity in brain of mice; conditions: high-test dose
SOD = assay: In vivo SOD level in brain of mice; conditions: 5 mg kg^−1
MDA = assay: In vivo MDA level in brain of mice; conditions: 5 mg kg^−1
GSH-Px = assay: In vivo GSH-Px activity in brain of mice; conditions: 5 mg kg^−1

eeAChE, sequence (O42275 24-633): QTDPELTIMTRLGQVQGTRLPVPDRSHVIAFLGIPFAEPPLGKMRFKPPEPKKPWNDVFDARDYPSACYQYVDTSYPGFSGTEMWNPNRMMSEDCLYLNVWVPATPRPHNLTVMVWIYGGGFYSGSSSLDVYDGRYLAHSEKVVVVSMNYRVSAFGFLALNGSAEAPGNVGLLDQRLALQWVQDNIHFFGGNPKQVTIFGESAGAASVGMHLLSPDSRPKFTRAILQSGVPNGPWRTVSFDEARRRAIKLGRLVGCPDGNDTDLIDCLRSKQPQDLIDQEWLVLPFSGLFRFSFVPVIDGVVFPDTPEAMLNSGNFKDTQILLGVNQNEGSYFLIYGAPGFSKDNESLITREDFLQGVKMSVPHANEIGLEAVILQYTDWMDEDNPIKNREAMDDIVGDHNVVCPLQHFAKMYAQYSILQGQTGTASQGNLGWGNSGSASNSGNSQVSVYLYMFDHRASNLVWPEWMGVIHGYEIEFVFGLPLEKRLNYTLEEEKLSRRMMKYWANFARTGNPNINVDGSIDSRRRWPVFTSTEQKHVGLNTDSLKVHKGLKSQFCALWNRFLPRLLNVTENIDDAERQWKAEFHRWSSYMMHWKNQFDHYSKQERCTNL
Aβ1–42 peptide, sequence (P05067 672-713): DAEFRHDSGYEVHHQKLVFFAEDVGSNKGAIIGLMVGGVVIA
eqBChE, sequence (P81908 whole entry): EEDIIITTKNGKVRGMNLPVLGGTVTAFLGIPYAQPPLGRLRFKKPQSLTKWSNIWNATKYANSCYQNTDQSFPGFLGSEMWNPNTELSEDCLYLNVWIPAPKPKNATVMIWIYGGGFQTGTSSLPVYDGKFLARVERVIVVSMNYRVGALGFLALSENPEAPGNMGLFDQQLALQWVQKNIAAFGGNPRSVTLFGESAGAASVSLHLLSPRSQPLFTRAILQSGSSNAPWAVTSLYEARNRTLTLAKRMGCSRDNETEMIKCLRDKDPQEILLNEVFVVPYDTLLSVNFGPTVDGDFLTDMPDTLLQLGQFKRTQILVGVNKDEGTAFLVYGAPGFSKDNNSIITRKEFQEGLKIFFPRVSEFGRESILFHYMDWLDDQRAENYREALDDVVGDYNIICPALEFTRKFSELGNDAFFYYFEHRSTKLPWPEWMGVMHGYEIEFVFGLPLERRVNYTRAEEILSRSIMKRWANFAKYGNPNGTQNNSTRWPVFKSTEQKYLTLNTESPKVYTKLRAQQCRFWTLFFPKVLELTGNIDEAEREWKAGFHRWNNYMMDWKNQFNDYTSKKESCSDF

Compound | IC50 [1] [µM] | FRAP value [2] [µM] | IC50 [3] [µM] | IC50 (eeAChE) [µM] | IC50 (human MAO-B) [µM] | SI = IC50 of BChE/IC50 of AChE (eeAChE) | IC50 (eqBChE) [µM] | SI = IC50 of MAO-A/IC50 of MAO-B (human MAO-B) | IC50 (human MAO-A) [µM] | in vivo antioxidant activity [4] | IC50 (Aβ1–42 peptide) [µM] | inhibition of amyloid beta fibrils (Aβ1–42 peptide) | neurotoxicity / cytotoxicity on SH-SY5Y cells (SH-SY5Y cells) | IC50 (COX-2) [µM] | cytotoxic effect on viability of HEK-293 cells (HEK-293 cells) | protective ability on SH-SY5Y (SH-SY5Y cells; at all concentrations (10–100 μM)) | CAT activity (CAT) [U mL^−1] | brain's SOD level (SOD) [U mL^−1] | MDA concentration in animal brains (MDA) [nmol/mL] | brain GSH-Px activity (GSH-Px)
O=C1O[C@H]([C@@H](O)CO)C(O)=C1O [Ascorbic acid, reference compound] | 4.89 ± 0.09 | 90.89 | 6.08 ± 0.21 |  |  |  |  |  |  |  |  |  |  |  |  |  |  |  |  | 
COc1cc(/C=C/C(=O)NC(C)C(N)=O)ccc1O (stereo not drawn) [Compound 18, (E)-N-(1-Amino-1-oxopropan-2-yl)-3-(4-hydroxy-3-methoxyphenyl)acrylamide] | 58.3 ± 1.21 | 29.84 | 45.1 ± 1.77 | 58.4 ± 0.09 | 10 ± 1.03 |  |  |  |  |  |  |  |  |  |  |  |  |  |  | 
CC(NC(=O)/C=C/c1ccc(-c2ccccc2)cc1)C(N)=O (stereo not drawn) [Compound 20, (E)-3-([1,1′-Biphenyl]-4-yl)-N-(1-amino-1-oxopropan-2-yl)acryl-amide] |  | 44.81 | 77.1 ± 1.37 | 13.51 ± 0.1 | 0.513 ± 0.07 | 6 | 84.1 ± 1.32 | 19 | 10 ± 0.925 |  |  |  |  |  |  |  |  |  |  | 
COc1cc(/C=C/C(=O)Nc2nc3ccc(O)cc3s2)ccc1O [Compound 21, (E)-3-(4-Hydroxy-3-methoxyphenyl)-N-(6-hydroxybenzo[d]thiazol-2-yl)acrylamide] | 14.44 ± 0.13 | 36.01 | 6.29 ± 0.09 | 29.84 ± 0.1 | 0.491 ± 0.024 | 1 | 43.1 ± 1.09 | 75 | 37.1 ± 1.03 |  |  |  |  |  |  |  |  |  |  | 
O=C(/C=C/c1ccc(-c2ccccc2)cc1)Nc1nc2ccc(O)cc2s1 [Compound 23, (E)-3-([1,1′-Biphenyl]-4-yl)-N-(6-hydroxybenzo[d]thiazol-2-yl)acryl-amide] | 18.19 ± 0.11 | 53.57 | 12.1 ± 0.14 | 0.071 ± 0.1 |  | 220 | 15.6 ± 0.901 | 270 | 10 ± 0.5 | good to moderate in vivo antioxidant activity | 23.1 ± 1.05 | approximately 30% | did not show any apparent neurotoxicity | 14.4 ± 0.28 | not showed in cytotoxic effect |  |  |  |  | 
COc1cc(/C=C/C(=O)Nc2ccc(S(N)(=O)=O)cc2)ccc1O [Compound 24, (E)-3-(4-Hydroxy-3-methoxyphenyl)-N-(4-sulfamoylphenyl)acryl-amide] | 21.21 ± 0.15 | 14.75 | 48.8 ± 1.2 | 10.74 ± 0.1 | 0.142 ± 0.011 | 5 | 58.2 ± 1.41 | 539 | 76.6 ± 1.22 |  |  |  |  |  |  |  |  |  |  | 
COc1cc(/C=C/C(=O)Nc2ccc(S(N)(=O)=O)cc2)ccc1OCc1ccccc1 [Compound 25, (E)-3-(4-(Benzyloxy)-3-methoxyphenyl)-N-(4-sulfamoylphenyl)acrylamide] | 25 ± 1.16 | 20.07 | 20.7 ± 1.11 | 0.835 ± 0.1 | 0.066 ± 0.004 | 17 | 14.1 ± 0.639 | 426 | 28.2 ± 1.09 |  | 14.1 ± 0.24 | ~50% | did not show any apparent neurotoxicity | 0.74 ± 0.13 | not showed in cytotoxic effect |  |  |  |  | 
NS(=O)(=O)c1ccc(NC(=O)/C=C/c2ccc(-c3ccccc3)cc2)cc1 [Compound 26, (E)-3-([1,1′-Biphenyl]-4-yl)-N-(4-sulfamoylphenyl)acrylamide] |  | 24.7 | 40.6 ± 1.11 | 0.89 ± 0.1 | 0.327 ± 0.011 | 1 | 1.03 ± 0.031 | 60 | 19.9 ± 1.17 |  | 19.52 ± 0.18 |  |  | 2.19 ± 0.1 | not showed in cytotoxic effect |  |  |  |  | 
CC(NC(=O)c1cc(O)c(O)c(O)c1)C(N)=O (stereo not drawn) [Compound 27, N-(1-Amino-1-oxopropan-2-yl)-3,4,5-trihydroxybenzamide] | 14.6 ± 0.52 |  | 20.4 ± 0.3 | 49.03 ± 0.1 | 30.2 ± 1.18 |  |  |  |  |  |  |  |  |  |  | 40–50% |  |  |  | 
O=C(Nc1nc2ccc(O)cc2s1)c1cc(O)c(O)c(O)c1 [Compound 28, 3,4,5-Trihydroxy-N-(6-hydroxybenzo[d]thiazol-2-yl)benzamide] | 1.77 ± 0.04 | 45.24 | 2.06 ± 0.11 | 1.48 ± 0.1 | 0.219 ± 0.34 | 6 | 9.25 ± 0.506 | 46 | 10.1 ± 0.239 | good to moderate in vivo antioxidant activity | 11.29 ± 0.08 | around 60% | did not show any apparent neurotoxicity | 10.4 ± 0.13 | not showed in cytotoxic effect |  | 97 | 94.20 | 1.15 | increases the antioxidant enzymatic activity of GSH-Px
NS(=O)(=O)c1ccc(NC(=O)c2cc(O)c(O)c(O)c2)cc1 [Compound 29, 3,4,5-Trihydroxy-N-(4-sulfamoylphenyl)benzamide] | 10.8 ± 0.63 |  | 23.5 ± 1.04 | 3.64 ± 0.1 | 0.395 ± 0.34 | 9 | 34 ± 1.18 | 54 | 21.4 ± 0.316 | not determined to be active |  |  | did not show any apparent neurotoxicity |  |  |  |  |  |  | 
COc1cc(/C=C/C(=O)CC(=O)/C=C/c2ccc(O)c(OC)c2)ccc1O [Curcumin, reference compound] |  |  |  |  |  |  |  |  |  |  |  | around 60% |  |  |  |  |  |  |  | 
COc1cc(/C=C/C(=O)O)ccc1O [Ferulic acid, trans-4-hydroxy-3-methoxycinnamic acid, reference compound] | 69.8 ± 1.48 |  |  |  |  |  |  |  |  |  |  |  |  |  |  |  |  |  |  | 
O=C(O)c1cc(O)c(O)c(O)c1 [Gallic acid, reference compound] | 35.2 ± 1.04 |  | 35.2 ± 1.19 |  |  |  |  |  |  |  |  |  |  |  |  |  |  |  |  | 
C#CCN[C@@H]1CCc2ccccc21 [rasigiline, rasagiline, reference compound] |  |  |  |  |  |  |  |  |  |  |  |  | no cytotoxicity |  |  |  |  |  |  | 
Cc1c(C)c2c(c(C)c1O)CCC(C)(C(=O)O)O2 (stereo not drawn) [trolox, reference compound] |  |  |  |  |  |  |  |  |  | significant antioxidant potential |  |  | no cytotoxicity |  |  |  |  |  |  | 
